Patent publication US9238039B2, “Pyrazolo[1,5-A]pyrimidines for antiviral treatment” (Gilead Sciences, Inc., priority 2010, dated 2016)

Tested on: RSV strain A2
Assay: RSV antiviral cytoprotection assay in Hep2 cells (96-well and 384-well format, Cell TiterGlo read-out)
Assay type: cell-based, Respiratory Syncytial Virus (RSV)
Settings: human respiratory syncytial virus; for inhibition at 0.5 µM: HEp-2, 0.5 uM; for inhibition at 0.5 µM / inhibition at 1 µM: RSV-induced cytopathic effect in Hep2 cells, calculated from fitted dose response curve, normalized to 0% and 100%; for EC50: HEp-2, RSV-induced cytopathic effects, Hep2 cells, class symbols; for inhibition at 1 µM: HEp-2, 1 uM

| Structure (SMILES) | inhibition at 0.5 µM [%] | EC50 [nM] | inhibition at 1 µM [%] |
| --- | --- | --- | --- |
| COC1CN(c2nc3cc([C@@H]4CCCCN4C(=O)c4cc(Cl)ccc4NS(C)(=O)=O)nn3cc2C)CC1N (some centres unmarked) [Compound 167] | 100 | 0.1 to 100 |  |
| Cc1cn2nc([C@@H]3CCCCN3C(=O)c3ccc(Cl)c(O)c3)cc2nc1N1CC[C@H](N)C1 [Compound 340] | 100 | 0.1 to 100 |  |
| CS(=O)(=O)Nc1ccc(Cl)cc1C(=O)N1CCCC[C@H]1c1cc2nc(N3CCC3)cc(N3C[C@H]4C[C@@H]3CN4)n2n1 [Compound 147] | 98 | 0.1 to 100 |  |
| Cc1cn2nc([C@@H]3CCCCN3C(=O)c3cccc(Cl)n3)cc2nc1N1CC[C@H](N)C1 [Compound 305] | 100 | 0.1 to 100 |  |
| Cc1cc(C(=O)N2CCCC[C@H]2c2cc3nc(N4CC[C@H](N)C4)c(C)cn3n2)c2cnn(C)c2n1 [Compound 393] | 99 | 0.1 to 100 |  |
| Cc1cn2nc([C@@H]3CCCCN3C(=O)c3ccccc3O)cc2nc1N1CC[C@H](N)C1 [Compound 274] | 100 | 0.1 to 100 |  |
| Cc1cn2nc([C@@H]3CCCCN3C(=O)c3cc(Cl)ccc3NS(C)(=O)=O)cc2nc1N1CC(=O)C1 [Compound 170] | 100 | 0.1 to 100 |  |
| Cc1ccc(NS(C)(=O)=O)c(C(=O)N2CCCC[C@H]2c2cc3nc(C)c(C)c(N4CCCC4)n3n2)c1 [Compound 98] | 98 | 0.1 to 100 |  |
| Cc1cn2nc([C@@H]3CCCCN3C(=O)c3cc(C(C)C)nn3C)cc2nc1N1CC[C@H](N)C1 [Compound 328] | 99 | 0.1 to 100 |  |
| CS(=O)(=O)Nc1ccc(Cl)cc1C(=O)N1CCCC[C@H]1c1cc2nc(N3CC(O)C3)cc(N3CCNCC3)n2n1 [Compound 50] | 100 | 0.1 to 100 |  |
| CS(=O)(=O)Nc1ccc(Cl)cc1C(=O)N1CCCC[C@H]1c1cc2nc(N3CC(N)C3)cc(N3CCOCC3)n2n1 [Compound 68] | 100 | 0.1 to 100 |  |
| Cc1cn2nc([C@@H]3CC[C@H](C)CN3C(=O)c3cc(Cl)ccc3NS(C)(=O)=O)cc2nc1N1CC(O)C1 [Compound 135] | 100 | 0.1 to 100 |  |
| Cc1cn2nc([C@@H]3CCCCN3C(=O)c3ccc(C(N)=O)s3)cc2nc1N1CC[C@H](N)C1 [Compound 336] | 78 | 101 to 1000 |  |
| Cc1cc(C2CC2)nc2cc([C@@H]3CCCCN3C(=O)c3cc(Br)ccc3NS(C)(=O)=O)nn12 [Compound 122] | 99 | 0.1 to 100 |  |
| CCc1c(C)[nH]c2cc([C@@H]3CCCCN3C(=O)c3cc(F)ccc3NS(C)(=O)=O)nn2c1=O [Compound 28] | 73 | 101 to 1000 | 95 |
| Cc1[nH]c2cc([C@@H]3CCCCN3C(=O)c3ccccc3NC(=O)C3CC3)nn2c(=O)c1C [Compound 14] | 96 | 0.1 to 100 | 98 |
| COc1ccc(C(=O)N2CCCC[C@H]2c2cc3nc(N4CC[C@H](N)C4)c(C)cn3n2)c(C)c1 [Compound 322] | 100 | 0.1 to 100 |  |
| CS(=O)(=O)Nc1ccc(Cl)cc1C(=O)N1CCCC[C@H]1c1cc2nc(N3CC(O)C3)cc(N3CCC(O)CC3)n2n1 [Compound 81] | 100 | 0.1 to 100 |  |
| Cc1ccnc(C(=O)N2CCCC[C@H]2c2cc3nc(N4CC[C@H](N)C4)c(C)cn3n2)c1 [Compound 272] | 100 | 0.1 to 100 |  |
| CS(=O)(=O)Nc1ccc(Cl)cc1C(=O)N1CCCC[C@H]1c1cc2nc(N3CC(F)C3)cc(N3CCOCC3)n2n1 [Compound 72] | 98 | 0.1 to 100 |  |
| Cc1cccc(NS(C)(=O)=O)c1C(=O)N1CCCC[C@H]1c1cc2[nH]c(C)c(C)c(=O)n2n1 [Compound 32] | 99 | 0.1 to 100 |  |
| Cc1cn2nc([C@@H]3CCCCN3C(=O)c3c(Cl)cnn3C(C)C)cc2nc1N1CC[C@H](N)C1 [Compound 382] | 99 | 0.1 to 100 |  |
| Cc1cn2nc([C@@H]3CCCCN3C(=O)c3cc(Cl)ccc3NS(C)(=O)=O)cc2nc1N1C[C@@H]2[C@@H](N)[C@@H]2C1 [Compound 148] | 100 | 0.1 to 100 |  |
| CS(=O)(=O)Nc1ccc(Cl)cc1C(=O)N1CCCC[C@H]1c1cc2nc(N3CCC3)cc(N3CCN(CCF)CC3)n2n1 [Compound 166] | 100 | 0.1 to 100 |  |
| CS(=O)(=O)Nc1ccc(Cl)cc1C(=O)N1CCCC[C@H]1c1cc2nc(N3CC(N)C3)ccn2n1 [Compound 53] | 98 | 0.1 to 100 |  |
| CC(=O)Nc1ccc(C)cc1C(=O)N1CCCC[C@H]1c1cc2nc(N3CC(O)C3)c(C)cn2n1 [Compound 221] | 100 | 0.1 to 100 |  |
| Cc1cc(C2CC2)nc2cc([C@@H]3CCCCN3C(=O)C(NC(=O)OC(C)(C)C)c3cccc(Cl)c3)nn12 (some centres unmarked) [Compound 238] | 100 | 101 to 1000 |  |
| Cc1cc(C2CC2)nc2cc([C@@H]3CCCCN3C(=O)[C@](C)(NS(C)(=O)=O)c3ccccc3)nn12 [Compound 240] | 71 | 101 to 1000 |  |

| Structure (SMILES) | inhibition at 0.5 µM [%] | EC50 [nM] | inhibition at 1 µM [%] |
| --- | --- | --- | --- |
| Cc1ccc(NS(C)(=O)=O)c(C(=O)N2CCCC[C@H]2c2cc3nc(C)c(C)c(N4CCCCC4)n3n2)c1 [Compound 236] | 98 | 0.1 to 100 |  |
| CC(=O)Nc1c(Cl)ccc(Cl)c1C(=O)N1CCCC[C@H]1c1cc2[nH]c(C)c(C)c(=O)n2n1 [Compound 245] | 92 | 0.1 to 100 |  |
| Cc1nc2cc([C@@H]3CCCCN3C(=O)c3ccccc3NS(C)(=O)=O)nn2c(N(C)C)c1C [Compound 100] | 96 | 0.1 to 100 |  |
| CCn1nccc1C(=O)N1CCCC[C@H]1c1cc2nc(N3CC[C@H](N)C3)c(C)cn2n1 [Compound 278] | 99 | 0.1 to 100 |  |
| CN1CCCN(c2cc(N3CCC3)nc3cc([C@@H]4CCCCN4C(=O)c4cc(Cl)ccc4NS(C)(=O)=O)nn23)CC1 [Compound 173] | 100 | 0.1 to 100 |  |
| Cc1cn2nc([C@@H]3CCCCN3C(=O)c3cc(Cl)ccc3NS(C)(=O)=O)cc2nc1N1CCC[C@H]1CN [Compound 203] | 86 | 101 to 1000 |  |
| Cc1cn2nc([C@@H]3CCCCN3C(=O)c3cccc4ccccc34)cc2nc1N1CC[C@H](N)C1 [Compound 338] | 72 | 101 to 1000 |  |
| Cc1cn2nc([C@@H]3CCCCN3C(=O)c3nc4ccccn4c3F)cc2nc1N1CC[C@H](N)C1 [Compound 363] | 99 | 0.1 to 100 |  |
| CCCn1nccc1C(=O)N1CCCC[C@H]1c1cc2nc(N3CC[C@H](N)C3)c(C)cn2n1 [Compound 300] | 99 | 0.1 to 100 |  |
| CS(=O)(=O)Nc1ccc(Cl)cc1C(=O)N1CCCC[C@H]1c1cc2nc(N3CCC3)cc(N3CCCCN3)n2n1 [Compound 252] | 92 | 0.1 to 100 |  |
| Cc1cn2nc([C@@H]3CCCCN3C(=O)c3[nH]c4ccc(F)cc4c3C)cc2nc1N1CC[C@H](N)C1 [Compound 398] | 99 | 0.1 to 100 |  |
| Cc1cn2nc([C@@H]3CCCCN3C(=O)c3cc(Cl)ccc3NS(C)(=O)=O)cc2nc1N1CC(CO)C1 [Compound 213] | 99 | 0.1 to 100 |  |
| Cc1cn2nc([C@@H]3CCCCN3C(=O)c3cc(-c4cccnc4)n[nH]3)cc2nc1N1CC[C@H](N)C1 [Compound 384] | 48 | 101 to 1000 |  |
| CNc1ccccc1C(=O)N1CCCC[C@H]1c1cc2[nH]c(C)c(C)c(=O)n2n1 [Compound 7] | 93 | 0.1 to 100 | 98 |
| Cc1cn2nc([C@@H]3CC[C@H](C)CN3C(=O)c3cc(Cl)ccc3NS(C)(=O)=O)cc2nc1N1CCC1 [Compound 138] | 100 | 0.1 to 100 |  |
| Cc1cn2nc([C@@H]3CCCCN3C(=O)c3c(Cl)c(C)nn3C)cc2nc1N1CC[C@H](N)C1 [Compound 348] | 99 | 0.1 to 100 |  |
| Cc1cccc(C(=O)N2CCCC[C@H]2c2cc3nc(N4CC[C@H](N)C4)c(C)cn3n2)c1 [Compound 157] | 100 | 0.1 to 100 |  |
| Cc1cn2nc([C@@H]3CCCCN3C(=O)c3cscn3)cc2nc1N1CC[C@H](N)C1 [Compound 270] | 82 | 101 to 1000 |  |
| Cc1ccc(C(=O)N2CCCC[C@H]2c2cc3nc(N4CC[C@H](N)C4)c(C)cn3n2)s1 [Compound 286] | 100 | 0.1 to 100 |  |
| CS(=O)(=O)Nc1ccc(Cl)cc1C(=O)N1CCCC[C@H]1c1cc2nc(C3CC3)cc(N3CCOCC3)n2n1 [Compound 63] | 98 | 0.1 to 100 |  |
| CS(=O)(=O)Nc1ccc(Cl)cc1C(=O)N1CCCC[C@H]1c1cc2nc(NCCO)cc(N3CCOCC3)n2n1 [Compound 247] | 94 | 0.1 to 100 |  |
| Cc1cn2nc([C@@H]3CCCCN3C(=O)c3onc(C)c3C)cc2nc1N1CC[C@H](N)C1 [Compound 283] | 99.8 | 0.1 to 100 |  |
| Cc1cn2nc([C@@H]3CCCCN3C(=O)c3cc(Cl)ncc3Cl)cc2nc1N1CC[C@H](N)C1 [Compound 395] | 100 | 0.1 to 100 |  |
| CS(=O)(=O)Nc1ccc(Cl)cc1C(=O)N1CCCC[C@H]1c1cc2nc(N3CC(O)C3)cc(N3CC(N)C3)n2n1 [Compound 130] | 100 | 0.1 to 100 |  |
| CC(=O)Nc1ccc(Cl)cc1C(=O)N1CCCC[C@H]1c1cc2nc(N3CC(N)C3)c(C)cn2n1 [Compound 248] | 100 | 0.1 to 100 |  |
| C[C@@H]1CN(c2cc(N3CCC3)nc3cc([C@@H]4CCCCN4C(=O)c4cc(Cl)ccc4NS(C)(=O)=O)nn23)C[C@H](C)O1 [Compound 107] | 100 | 0.1 to 100 |  |
| CS(=O)(=O)Nc1ccc(Cl)cc1C(=O)N1CCCC[C@H]1c1cc2nc(N3CC[C@@H](O)C3)ccn2n1 [Compound 51] | 98 | 0.1 to 100 |  |
